Square brackets hold non-standard residues; d marks the D form.
Assays:
[1] = 37° C.
Protocol: The samples were incubated at 37° C. An extraction (for extraction method with acetonitrile, see Item 7.3 below) of each product was carried out in triplicate at time 0 and after 1, 2, 4 and 6 hours of incubation.
10 μl of internal standard (prolyl-daunorubicin) and […] 150 μl of acetonitrile were added into tubes containing 50 μl of the sample to be extracted. The tubes were stirred and centrifuged for 10 minutes to 13000 g. The supernatant was diluted 4 times in a formate buffer, pH 4, centrifuged, then analyzed by HPLC (see Item 7.3 below).
At different time points, the concentrations of the conjugates and possible metabolites formed were evaluated by HPLC. FIG. 7 illustrates the variations of the concentration of products based on the incubation time.

[2] = system: LS-174T human colon cancer xenografts; assay: In vivo tumor reactivation of PEGylated prodrug derivatives (Dox and Leu-Dox accumulated in tumor); conditions: i.v. bolus 69 μmol/kg, LS-174T tumor
[3] = system: LS-174T human tumor xenografts; assay: Efficacy study in LS-174T human colon carcinoma xenograft model; conditions: for T/C min / specific growth delay (SGD): LS-174T, Suc-beta-ALAL-Dox 50 μmol/kg, PEG2000-(DSer)4-ALAL-Dox 1×50+3×35 μmol/kg, i.v. days 0, 7, 14, 21; for body weight loss: as of the second week of weekly i.v. treatment
Protocol: The experimental chemotherapy studies were carried out on athymic mice that carried LS-174T or HCT 116 (colon carcinomas) tumors of human origin previously grafted subcutaneously.
The mice were selected and distributed into the different groups of the study so as to have equal distributions of tumor volumes. The different treatments were randomly assigned to the groups so formed.
Treatments were administered intravenously in the caudal vein. During these injections, the animals received a constant volume of 10 μl/g of product (Workman et al., 1998). After the injection, the clinical signs were duly followed (each hour during the first day, and daily until the end of the study), as well as the weight that was measured at the same time as the tumor volume (mm^3). The growth of the tumor was monitored 2× per week by measuring, with the aid of a caliper, two perpendicular diameters (or “diagonals”) of the tumor (the largest and the smallest “diagonal”).
To determine the variations of the tumor volume of the different groups, the median of the relative tumor volumes (RTV for “relative tumor volume”) that express in percent the variations of the medians of the tumor volumes relative to day 0 was calculated. To estimate the effect of the various treatments, the inhibition of the growth was determined by calculating the ratio between the median of the RTV of the treated groups (T) and that of control group (C) that is expressed by percentage (T/C(%)).
The lowest value of the T/C ratio was used as a parameter to estimate the maximum efficacy of the products that were evaluated.
The Specific Growth Delay (SGD) was also calculated as (DTtreated−DTcontrol)/(DTcontrol).
For these reasons, growth delays (T-C) and specific growth delays (SGD) were calculated from linear regressions of different phases that characterize the growth of the tumors.
The products were injected intravenously (10 μl/g, 6 mice per group).
The administered doses were reduced starting from day 7.

[4] = system: HCT-116 human colon carcinoma xenograft; assay: Chemotherapy study in HCT-116 human colon carcinoma xenograft model; assay type: in vivo, mice
Description: The anti-tumor efficacy of PEG2000-(DSer)4-ALAL-Dox was compared to that of succinyl-βALAL-Dox in an HCT-116 human colon carcinoma xenograft model that was implanted subcutaneously in Swiss nude/nude mice. The animals received 5 i.v. bolus injections (for 5 consecutive days) of succinyl-βALAL-Dox at 30 μmol/kg or PEG2000-(DSer)4-ALAL-Dox at 53 and 110 μmol/kg (6 mice/group). […] The results of FIG. 8 show the variations of the body weight of the animals. […] The anti-tumor efficacy is shown by the T/C curve that comprises two phases (FIG. 9). […] In the second phase, the activity of the PEGylated derivative (110 μmol/kg) decreased relative to that of succinyl-PALAL-Dox. […] The MTD of the PEGylated derivative was not reached in this study.
The anti-tumor efficacy of PEG2000-(DSer)4-ALAL-Dox was compared to that of PEG2000-ALAL-Dox in an HCT-116 human colon carcinoma xenograft model implanted subcutaneously in Swiss nude/nude mice. The animals received 5 i.v. bolus injections (for 5 consecutive days) of the compounds at doses of 200, 300, and 400 μmol/kg (5 mice/group). Contrary to PEG2000-ALAL-Dox, PEG2000-(DSer)4-ALAL-Dox was toxic at 300 and 400 μmol/kg and induced a weight loss and the death of the animals (FIG. 10).

[5] = system: MCF-7/6 cells; assay: Cytotoxicity test (WST-1 cell viability); assay type: cell-based, human; conditions: read-out: IC50 (50% inhibiting concentration), 48 hours incubation + 24 hours drug-free post-incubation
Protocol: The cytotoxicity tests of doxorubicin and derivatives were carried out with MCF-7/6 cells and LNCaP cells.
The cells were collected by trypsinization, counted, and then inoculated in 96-well plates in 200 μl of serum-containing medium.
The cells were incubated for 24 hours at 37° C. before the addition of the products to be tested:
diluted to various concentrations in the serum-containing culture medium. After an incubation of 48 hours in the presence of various compounds, the cells were finally post-incubated at 37° C. for 24 hours in the presence of drug-free serum-containing medium. After this incubation period, a cell viability test was carried out (WST-1, Roche Molecular Biochemical, Mannheim, Germany).
They were then post-incubated for 24 hours in drug-free serum containing medium. The cytotoxicity of the products was estimated by a cell viability test (WST-1, Roche Molecular Diagnostic, Mannheim, Germany).

[6] = 1×50+3×35 μmol/kg vs doxorubicin 6.69 μmol/kg

Compound: COc1cccc2c1C(=O)c1c(O)c3c(c(O)c1C2=O)CC(O)(C(=O)CO)CC3OC1CC(NC(=O)C(CC(C)C)NC(=O)C(C)NC(=O)C(CC(C)C)NC(=O)C(C)N)C(O)C(C)O1 (stereo not drawn) [ALAL-Dox, Ala-Leu-Ala-Leu-doxorubicin, reference compound]
- stability in blood ([1]; 20 μM in citrated human blood): not stable in blood
- starting product degraded in Leu-Dox and Dox ([1]; after 1 hour, whole human blood): 80%

Compound: COc1cccc2c1C(=O)c1c(O)c3c(c(O)c1C2=O)CC(O)(C(=O)CO)CC3OC1CC(NC(=O)C(CC(C)C)NC(=O)C(C)NC(=O)C(CC(C)C)NC(=O)CCNC(=O)CCC(=O)O)C(O)C(C)O1 (stereo not drawn) [Suc-beta-ALAL-Dox, succinyl-beta-Ala-Leu-Ala-Leu-doxorubicin, reference compound]
- DOX concentration in tumor ([2]; 2 hours after injection): 1.93 nmol/mg
- Leu-DOX concentration in tumor ([2]; 2 hours after injection): 4.64 nmol/mg
- DOX concentration in tumor ([2]; 72 hours after injection): 5.41 nmol/mg
- Leu-DOX concentration in tumor ([2]; 72 hours after injection): 0.05 nmol/mg
- T/C min [3]: 26.6%
- specific growth delay (SGD) [3]: 3.02
- body weight loss [3]: slight weight loss
- maximum weight loss ([3]; day 32, 45 and 50 μmol/kg groups): 10%
- body weight loss ([4]; 30 μmol/kg ×5 i.v., end of the study, day 49): about 20%

Compound: COc1cccc2c1C(=O)c1c(O)c3c(c(O)c1C2=O)C[C@@](O)(C(=O)CO)C[C@@H]3O[C@H]1C[C@H](N)[C@H](O)[C@H](C)O1 [doxorubicin, reference compound]
- body weight loss [3]: no significant weight loss

Compound: PEG2000-(DSer)4-Ala-Leu-Ala-Leu-doxorubicin (PEG2000-[dS][dS][dS][dS]ALAL-doxorubicin) [PEG2000-(DSer)4-ALAL-Dox]
- activity during the first growth phase [3, 6]: comparable to that of doxorubicin
- activity during the second growth phase [3, 6]: more active than doxorubicin and as active as Suc-beta-ALAL-Dox
- T/C min [3]: 38%
- specific growth delay (SGD) [3]: 1,58
- body weight loss [3]: no significant weight loss
- deaths ([3]; initial i.v. bolus at 50 μmol/kg and 45 μmol/kg, 6 mice per group): One death
- hydrolysis: Dox formed ([1]; at 6 hours, whole human blood): 5%
- hydrolysis: L-Dox (Leu-Dox) formed ([1]; at 6 hours, whole human blood): 5%
- anti-tumor effect ([4]; 53 μmol/kg ×5 i.v.): induced a tumor regression for the week of treatment
- toxicity ([4]; 53 and 110 μmol/kg, 5 i.v. bolus injections): no toxicity
- toxicity (weight loss and death of the animals) ([4]; 300 and 400 μmol/kg, 5 i.v. bolus injections on 5 consecutive days): toxic
- anti-tumor efficacy ([4]; equimolar non-toxic dose 200 μmol/kg ×5 i.v.): better anti-tumor efficacy than that of PEG2000-ALAL-Dox
- maximum tolerated dose (MTD) ([4]; up to 110 μmol/kg ×5 i.v.): not reached

Compound: PEG2000-(DSer)4-beta-Ala-Leu-Ala-Leu-doxorubicin [PEG2000-(DSer)4-beta-ALAL-Dox]
- IC50 [5]: 251 µM

Compound: PEG2000-beta-Ala-Leu-Ala-Leu-doxorubicin [PEG2000-beta-ALAL-Dox]
- IC50 [5]: > 500 µM

Reference: patent publication US20060281897A1, “Potentialization of the activation of high molecular weight prodrugs” (priority 2003, published 2006)
